# Results from patent US10358435B2, “Triazolyl pyrimidinone compounds as PDE2 inhibitors” (Merck Sharp & Dohme Corp., priority 2015, dated 2019).
# Target: human PDE2A1 (Homo sapiens (Human), UniProt O00408)
# Test: IMAP fluorescence polarization assay, human PDE2A1 (PDE selectivity panel)
# Type: biochemical
# Conditions: not given
# Protocol: The activity of the compounds in accordance with the present invention as PDE2 inhibitors may be readily determined using a fluorescence polarization (FP) methodology (Huang, W., et al., J. Biomol Screen, 2002, 7: 215).
# Dose-inhibition profiles for each compound were characterized by fitting the mP data to a four-parameter equation given below.
# Selectivity for PDE2, as compared to other PDE families, was assessed using the IMAP® technology. Human PDE10A2 enzyme was prepared from cytosolic fractions of transiently transfected HEK cells. All other PDE's were GST Tag human enzyme expressed in insect cells and were obtained from BPS Bioscience (San Diego, Calif.): PDE1A (Cat#60010), human PDE2A1 (Cat#60020), PDE3A (Cat#60030), PDE4A1A (Cat#60040), PDE5A1 (Cat#60050), PDE6C (Cat#60060), PDE7A (Cat#60070), PDE8A1 (Cat#60080), PDE9A2 (Cat#60090), PDE11A4 (Cat#60110).
# Assays for PDE 1 through 11 were performed in parallel at room temperature in 384-well microtiter plates with an incubation volume of 20.2 μL. Solutions of test compounds were prepared in DMSO and serially diluted with DMSO to yield 30 μL of each of ten solutions differing by 3-fold in concentration, at 32 serial dilutions per plate. […] A Labcyte POD 810 (Labcyte, Sunnyvale, Calif.) was used to dispense 200 nL from each well of the titration plate to make eleven copies of the assay plate for each titration, one copy for each PDE enzyme. A solution of each enzyme (dilution from aliquots, sufficient to produce 20% substrate conversion) and a separate solution of FAM-labeled cAMP or FAM-labeled cGMP from Molecular Devices (Sunnyvale, Calif., product # R7506 or cGMP#R7508), at a final concentration of 50 nM were made in the assay buffer (10 mM Tris HCl, pH 7.2, 10 mM MgCl2, 0.05% NaN3 0.01% Tween-20, and 1 mM DTT). Note that the substrate for PDE2 is 50 nM FAM cAMP containing 1000 nM of cGMP. The enzyme and the substrate were then added to the assay plates in two consecutive additions of 10 μL and then shaken to mix. The reaction was allowed to proceed at room temperature for 60 minutes. A binding solution was then made from the kit components, comprised of 80% Solution A, 20% Solution B and binding reagent at a volume of 1/600 the total binding solution. The enzymatic reaction was stopped by addition of 60 μL of the binding solution to each well of the assay plate. The plates were sealed and shaken for 10 seconds. The plates were incubated at room temperature for one hour, then the parallel and perpendicular fluorescence was measured using a Tecan Genios Pro plate reader (Tecan, Switzerland). The apparent inhibition constants for the compounds against all 11 PDE's was determined from the parallel and perpendicular fluorescent readings as described for PDE10 FP assay using the following apparent KM values for each enzyme and substrate combination: PDE1A (FAM cGMP) 70 nM, human PDE2A1 (FAM cAMP) 10,000 nM, PDE3A (FAM cAMP) 50 nM, PDE4A1A (FAM cAMP) 1500 nM, PDE5A1 (FAM cGMP) 400 nM, PDE6C (FAM cGMP) 700 nM, PDE7A (FAM cAMP) 150 nM, PDE8A1 (FAM cAMP) 50 nM, PDE9A2 (FAM cGMP) 60 nM, PDE10A2 (FAM cAMP) 150 nM, PDE11A4 (FAM cAMP) 1000 nM. The intrinsic PDE2 inhibitory activity of a compound which may be used in accordance with the present invention may be determined by these assays.
# Chain of human PDE2A1 (O00408 other isoform, or with tags, fused parts or gaps): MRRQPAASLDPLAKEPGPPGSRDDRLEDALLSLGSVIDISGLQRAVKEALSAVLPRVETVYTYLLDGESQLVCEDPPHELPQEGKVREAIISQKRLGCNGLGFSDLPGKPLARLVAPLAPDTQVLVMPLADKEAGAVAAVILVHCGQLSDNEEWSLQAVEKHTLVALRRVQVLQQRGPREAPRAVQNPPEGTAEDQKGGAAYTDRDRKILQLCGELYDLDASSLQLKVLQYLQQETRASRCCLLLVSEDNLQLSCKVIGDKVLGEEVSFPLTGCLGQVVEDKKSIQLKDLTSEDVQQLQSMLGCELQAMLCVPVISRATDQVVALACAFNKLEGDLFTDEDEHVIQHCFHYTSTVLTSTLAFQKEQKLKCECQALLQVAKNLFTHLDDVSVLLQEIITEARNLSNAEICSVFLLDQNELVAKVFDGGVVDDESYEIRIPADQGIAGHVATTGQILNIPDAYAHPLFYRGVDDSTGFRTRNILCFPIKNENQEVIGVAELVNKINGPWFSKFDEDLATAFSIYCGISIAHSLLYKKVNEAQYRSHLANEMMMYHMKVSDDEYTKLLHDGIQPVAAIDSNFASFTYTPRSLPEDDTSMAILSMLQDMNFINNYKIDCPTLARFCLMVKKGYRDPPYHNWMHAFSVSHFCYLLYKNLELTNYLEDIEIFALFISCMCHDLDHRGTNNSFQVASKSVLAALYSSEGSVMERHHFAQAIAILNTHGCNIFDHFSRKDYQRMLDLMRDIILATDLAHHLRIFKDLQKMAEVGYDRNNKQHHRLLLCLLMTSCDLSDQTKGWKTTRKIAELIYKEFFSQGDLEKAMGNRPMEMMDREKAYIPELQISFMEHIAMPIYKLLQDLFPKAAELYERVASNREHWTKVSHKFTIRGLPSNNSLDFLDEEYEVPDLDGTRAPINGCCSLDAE
row,inhibition at 3 µM [%],Structure (SMILES)
1,44,"Cc1nc(-c2nnn([C@H](C)c3ccc(C(F)(F)F)cc3Cl)c2C)cc(=O)[nH]1 (mixture of isomers) [Example 44, (R)- and (S)-6-(1-(1-(2-Chloro-4-(trifluoromethyl)phenyl)-ethyl)-5-methyl-1H-1,2,3-triazol-4-yl)-2-methylpyrimidin-4(3H)-one]"
2,48,"Cc1nc(-c2nnn3c2CCC[C@H]3c2ccc(C(F)(F)F)cc2)cc(=O)[nH]1 (mixture of isomers) [Example 47, (R)- and (S)-2-Methyl-6-(7-(4-(trifluoromethyl)phenyl)-4,5,6,7-tetrahydro-[1,2,3]triazolo[1,5-a]pyridin-3-yl)pyrimidin-4(3H)-one]"

# Same assay, conditions: FAM cAMP 50 nM with 1000 nM cGMP
row,Ki [µM],Structure (SMILES)
1,0.203,"Cc1nc(-c2cn(C(C)c3cc(F)c(C(F)(F)F)cc3F)nn2)cc(=O)[nH]1 (single isomer, unassigned) [Example 23, (R)- or (S)-6-(1-(1-(2,5-difluoro-4-(triufluoromethyl)phenyl)ethyl)-1H-1,2,3-triazol-4-yl)-2-methylpyrimidin-4(3H)-one]"
2,0.0527,"Cc1nc(-c2nnc(C(C)c3ccc(C(F)(F)F)cc3F)[nH]2)cc(=O)[nH]1 (single isomer, unassigned) [Example 61, (R)- or (S)-6-(5-(1-(2-fluoro-4-(trifluoromethyl)-phenyl)ethyl)-4H-1,2,4-triazol-3-yl)-2-methylpyrimidin-4(3H)-one]"
3,0.0207,"Cc1nc(-c2nnn3c2CCCC3c2ccc(C(F)(F)F)cc2F)cc(=O)[nH]1 (single isomer, unassigned) [Example 50, (S)- or (R)-6-(7-(2-fluoro-4-(trifluoromethyl)phenyl)-4,5,6,7-tetrahydro-[1,2,3]triazolo[1,5-a]pyridin-3-yl)-2-methylpyrimidin-4(3H)-one]"
4,0.0046,"Cc1nc(-c2nnn([C@H](C)c3ccc(C(F)(F)F)cc3Cl)c2C)cc(=O)[nH]1 (single isomer, unassigned) [Example 43]"
5,0.132,"Cc1nc(-c2cn([C@H](C)c3ccc(C(F)(F)F)cc3C)nn2)cc(=O)[nH]1 (single isomer, unassigned) [Example 10]"
6,0.0584,"Cc1nc(-c2cn(C(C)c3ccc(C4CC4)cc3Cl)nn2)cc(=O)[nH]1 (single isomer, unassigned) [Example 25, (R)- or (S)-6-(1-(1-(2-chloro-4-cyclopropylphenyl)ethyl)-1H-1,2,3-triazol-4-yl)-2-methylpyrimidin-4(3H)-one]"
7,0.112,"Cc1nc(-c2cnn(C(C)c3ccc(C(F)(F)F)cc3F)n2)cc(=O)[nH]1 (single isomer, unassigned) [Example 3, (R)- or (S)-6-(2-(1-(2-fluoro-4-(trifluoromethyl)phenyl)ethyl)-2H-1,2,3-triazol-4-yl)-2-metylpyrimidin-4(3H)-one]"
8,1.1,"CCCCc1c(-c2cc(=O)[nH]c(C)n2)nnn1C(C)c1ccc(C(F)(F)F)cc1Cl (single isomer, unassigned) [Example 46, (S)- or (R)-6-(5-butyl-1-(1-(2-chloro-4-(trifluoromethyl)phenyl)ethyl)-1H-1,2,3-triazol-4-yl)-2-methylpyrimidin-4(3H)-one]"
9,0.232,"Cc1nc(-c2nnn3c2CCC[C@@]3(C)c2ccc(C(F)(F)F)cc2)cc(=O)[nH]1 (single isomer, unassigned) [Example 55]"
10,0.0233,"Cc1nc(-c2nnc(C(C)c3ccc(C(F)(F)F)cc3F)n2C)cc(=O)[nH]1 (single isomer, unassigned) [Example 64, (S)- or (R)-6-(5-(1-(2-fluoro-4-(trifluoromethyl)-phenyl)ethyl)-4-methyl-4H-1,2,4-triazol-3-yl)-2-methylpyrimidin-4(3H)-one]"
11,0.0089,"Cc1nc(-n2cc([C@H](C)c3ccc(C(F)(F)F)cc3Cl)nn2)cc(=O)[nH]1 (single isomer, unassigned) [Example 75]"
12,0.0054,"Cc1nc(-c2cn(C(C)(C)c3ccc(C(F)(F)F)cc3C)nn2)cc(=O)[nH]1 [Example 31, 2-methyl-6-(1-(2-(2-methyl-4-(trifluoromethyl)phenyl)propan-2-yl)-1H-1,2,3-triazol-4-yl) pyrimidin-4(3H)-one]"
13,0.0013,"Cc1nc(-c2nnn3c2CCCC3(C)c2ccc(C(F)(F)F)cc2F)cc(=O)[nH]1 (single isomer, unassigned) [Example 58, (R)- or (S)-6-(7-(2-fluoro-4-(trifluoromethyl)phenyl)-7-methyl-4,5,6,7-tetrahydro-[1,2,3]triazolo[1,5-a]pyridin-3-yl)-2-methylpyrimidin-4(3H)-one]"
14,0.0042,"Cc1nc(-n2ncc([C@H](C)c3ccc(C(F)(F)F)cc3Cl)n2)cc(=O)[nH]1 (single isomer, unassigned) [Example 83]"
15,0.167,"Cc1nc(-c2ncn(C(C)c3ccc(C(F)(F)F)cc3F)n2)cc(=O)[nH]1 (stereo not drawn) [Example 86, 6-(1-(1-(2-Fluoro-4-(trifluoromethyl)phenyl)ethyl)-1H-1,2,4-triazol-3-yl)-2-methylpyrimidin-4(3H)-one]"
16,0.218,"Cc1nc(-c2nnn3c2CCC3(C)c2ccc(C(F)(F)F)cc2F)cc(=O)[nH]1 (single isomer, unassigned) [Example 98, (S)- or (R)-6-(6-(2-Fluoro-4-(trifluoromethyl)phenyl)-6-methyl-5,6-dihydro-4H-pyrolo[1,2-c][1,2,3]triazol-3-yl)-2-methylpyrimidin-4(3H)-one]"
17,0.029,"CCC1(c2ccc(C(F)(F)F)cc2)CCCc2c(-c3cc(=O)[nH]c(C)n3)nnn21 (single isomer, unassigned) [Example 57, (S)- or (R)-6-(7-ethyl-7-(4-(trifluoromethyl)phenyl)-4,5,6,7-tetrahydro-[1,2,3]triazolo[1,5-a]pyridin-3-yl)-2-methylpyrimidin-4(3H)-one]"
18,0.387,"Cc1nc(-c2nnc(C(C)c3ccc(C(F)(F)F)cc3F)[nH]2)cc(=O)[nH]1 (single isomer, unassigned) [Example 62, (S)- or (R)-6-(5-(1-(2-fluoro-4-(trifluoromethyl)-phenyl)ethyl)-4H-1,2,4-triazol-3-yl)-2-methylpyrimidin-4(3H)-one]"
19,0.067,"Cc1nc(-c2nnn3c2CCCCC3(C)c2ccc(C(F)(F)F)cc2F)cc(=O)[nH]1 (single isomer, unassigned) [Example 93, (S)- or (R)-6-(8-(2-Fluoro-4-(triflouromethyl)phenyl)-8-methyl-5,6,7,8-tetrahydro-4H-[1,2,3]triazolo[1,5-a]azepin-3-yl)-2-methylpyrimidin-4(3H)-one]"
20,0.0609,"CCc1ccc(C(C)n2ncc(-c3cc(=O)[nH]c(C)n3)n2)c(Cl)c1 (single isomer, unassigned) [Example 7, (R)- or (S)-6-(2-(1-(2-chloro-4-ethylphenyl)ethyl)-2H-1,2,3-triazol-4-yl)-2-methylpyrimidin-4(3H)-one]"
21,0.221,"Cc1nc(-n2ncc([C@H](C)c3ccc(C(F)(F)F)cc3Cl)n2)cc(=O)[nH]1 (single isomer, unassigned) [Example 82]"

row,Structure (SMILES),Ki [µM]
1,"COc1cccc(Cc2nc(-c3nnn4c3CCCC4(C)c3ccc(C(F)(F)F)cc3F)cc(=O)[nH]2)c1 (single isomer, unassigned) [Example 92]",0.728
